# Test results as given in publication PMC9424906 (Frontiers in Pharmacology, 2022).
# “Also recorded” adds a separate entry of the source.
# How the values were obtained:
# [1] = test system: SARS-CoV-2 (2019-nCoV/USA-WAl/2020); format: cell-based; conditions: EpiAirway 3D HAE tissue model
# [2] = physchem; format: physicochemical; conditions: pH 7.4, aqueous buffer, kinetic from dmso stock
# Description: Kinetic aqueous solubility was determined at NCATS using Pion’s patented µSOL assay as described previously ([Sun et al., 2019]).
# [3] = Liver microsomal stability, SD rat; format: in vitro ADME; conditions: Sprague-Dawley, liver microsomes, pH 7.4, 0.5 mg/mL
# Description: Samples were analyzed using UPLC-MS/MS.
# [4] = target: T1, ENT2 (Homo sapiens, UniProt Q14542); experiment: Nucleoside transporter uptake, ENT2-transfected MDCK cells; format: in vitro ADME
# T1 construct: expressed in transfected cells; host or cells: MDCK-II
# Text: Each condition was run in triplicate.
# [5] = Pharmacokinetics in Sprague Dawley rats; format: in vivo; conditions: male, rat; for Vd / clearance / AUC(0-inf) / Cmax / Tmax / bioavailability: in vivo; for Vd / clearance: iv; for AUC(0-inf) / Cmax / Tmax / bioavailability / half-life: po; for half-life: plasma, Rat
# Description: (§1) Adult male C57BL/6 mice and Sprague Dawley rats were purchased from Charles River Laboratory (Wilmington, MA). PK studies for mice and rats were conducted at NIH animal facility (Bethesda, MD). In-life dog and monkey PK studies were conducted at Absorption System (San Diego, CA) and Frontage Labs (Concord, OH), respectively. Dogs and monkeys were fasted overnight prior to dose administrations. All experimental procedures were reviewed and approved by the Animal Care and Use Committee (ACUC) of the NIH Division of Veterinary Resources (DVR) or CRO labs for in-life studies.
# Male Sprague–Dawley rats (n = 3 or 4 per treatment group, ∼ 343–375 g) were dosed in IV and PO dosing groups: 1 and 5 mg/kg IV, and 10, 30 and 100 mg/kg PO, respectively. Double cannulated rats (one catheter for IV dosing and another one for sampling) were used. Plasma samples were collected from jugular vein over 24 h. In bile duct cannulated (BDC) rat group, a single IV dose of 2 mg/kg was administered to three rats. Rat urine and bile samples were collected for the pre-dose, 0–4 h, 4–8 h, and 8–24 h time periods for BDC rats.
# (§2) Blood samples from all groups and species were collected in K2EDTA tubes and stored on wet ice pending processing. Blood was centrifuged at 2200 g at 4°C for 10 min to isolate plasma. All samples were stored at -80°C until analysis.
# (§3) Phoenix WinNonlin, version 8.1 (Certara, St. Louis, MO), was used to perform PK analysis with the non-compartmental approach (Models 200 and 201 for PO and IV datasets). The area under the plasma concentration vs. time curve (AUC) was calculated using the linear trapezoidal method. The terminal rate constant (λ) was obtained from the slope of at least three data points of the apparent terminal phase of the log-linear plasma concentration vs. time curve when available. AUC0–∞ was estimated as the sum of the AUC0–t (where t is the time of the last measurable concentration) and Ct/λ. The apparent terminal half-life (t½) was calculated as 0.693/λ. Bioavailability (F) was calculated using ratios of dose normalized AUC (AUC/Dose) obtained from PO and IV PK studies.
# [6] = Pharmacokinetics in Cynomolgus monkeys; format: in vivo; conditions: male, cynomolgus monkey
# Description: as §1
# The dosing volumes were 2 mL/kg for IV and 5 mL/kg for PO. Blood samples were obtained from each monkey up to 48 h after IV and PO administration. Urine samples were collected over 48 h for IV group.
# as §2, §3
# [7] = test system: MDR1; conditions: MDCK-MDR1
# [8] = 7-days dose range finding study in monkeys; conditions: oral, 7 days, 1,000 mg/kg/day
# T1 sequence (Q14542 whole entry): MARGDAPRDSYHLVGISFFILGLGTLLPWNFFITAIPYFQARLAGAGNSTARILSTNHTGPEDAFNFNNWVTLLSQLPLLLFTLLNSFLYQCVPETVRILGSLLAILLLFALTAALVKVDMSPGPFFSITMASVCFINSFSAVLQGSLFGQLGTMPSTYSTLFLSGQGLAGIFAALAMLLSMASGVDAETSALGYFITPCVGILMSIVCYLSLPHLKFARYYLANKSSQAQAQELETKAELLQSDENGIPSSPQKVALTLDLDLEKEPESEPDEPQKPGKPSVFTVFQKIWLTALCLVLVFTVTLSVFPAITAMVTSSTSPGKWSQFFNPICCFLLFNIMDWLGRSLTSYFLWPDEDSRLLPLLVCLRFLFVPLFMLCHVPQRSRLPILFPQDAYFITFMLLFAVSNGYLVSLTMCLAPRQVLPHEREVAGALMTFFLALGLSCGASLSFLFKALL
smiles,measurement,setting,value
N#C[C@@]1(c2ccc3c(N)ncnn23)O[C@H](CO)[C@@H](O)[C@H]1O [GS-441524],Potency on viral titer (TCID50) at 24 h,[1]; 24 h,lower potency than EIDD-2801
same,Viral titer (TCID50),[1]; 24 h and 96 h after infection,significantly inhibited the viral infection; also recorded: reduced viral load
same,solubility kinetic,[2],42 µg/mL
same,half-life at 1 µM,[3],1.02 ± 0.15 h
same,Substrate of ENT2,[4],substrate
same,Inhibition of uptake by reference inhibitor,"[4]; ENT2-transfected cells, 100 µM adenosine",did not inhibit; also recorded: no inhibition was observed
same,Vd,[5]; 1 mg/kg,2.6 L/kg
same,clearance,[5]; 1 mg/kg,31 mL/min/kg
same,Vd,[5]; 5 mg/kg,2.2 ± 0.3 L/kg
same,clearance,[5]; 5 mg/kg,25 ± 1.6 mL/min/kg
same,AUC(0-inf),[5]; 10 mg/kg,2170 ng·h/mL
same,Cmax,[5]; 10 mg/kg,193 ± 57 ng/mL
same,Tmax,[5]; 10 mg/kg,3.8 ± 2.4 h
same,bioavailability,[5]; 10 mg/kg,33 ± 9.8%
same,AUC(0-inf),[5]; 30 mg/kg,4220 ng·h/mL
same,Cmax,[5]; 30 mg/kg,326 ± 77 ng/mL
same,Tmax,[5]; 30 mg/kg,3.8 ± 2.4 h
same,bioavailability,[5]; 30 mg/kg,21 ± 3.8%
same,AUC(0-inf),[5]; 100 mg/kg,9560 ng·h/mL
same,Cmax,[5]; 100 mg/kg,825 ± 91 ng/mL
same,Tmax,[5]; 100 mg/kg,2.3 ± 1.3 h
same,bioavailability,[5]; 100 mg/kg,15 ± 3.2%
same,half-life,"[5]; 10 mg/kg, PO 10 mg/kg, read-out: t1/2 (converted)",3.4 ± 0.2 h
same,half-life,"[5]; 30 mg/kg, PO 30 mg/kg, read-out: t1/2 (converted)",3.4 ± 0.2 h
same,half-life,"[5]; 100 mg/kg, PO 100 mg/kg, read-out: t1/2 (converted)",4.2 ± 1.8 h
same,half-life,"[5]; 100 mg/kg, PO 10, 30 and 100 mg/kg, read-out: Half-life (t1/2)",3.4 to 4.2 h
same,Vd,"[6]; in vivo, iv, 2 mg/kg",1.1 ± 0.04 L/kg
same,clearance,"[6]; in vivo, iv, 2 mg/kg",9.5 ± 1 mL/min/kg
same,AUC(0-inf),"[6]; in vivo, po, 5 mg/kg",734 ± 138 ng·h/mL
same,Cmax,"[6]; in vivo, po, 5 mg/kg",59.4 ± 18.1 ng/mL
same,Tmax,"[6]; in vivo, po, 5 mg/kg",2 h
same,bioavailability,"[6]; in vivo, po, 5 mg/kg",8.3 ± 1.6%
same,half-life,"[6]; plasma, Monkey, PO 5 mg/kg",7.7 ± 1.4 h
same,Substrate of MDR1,[7],substrate
same,Tolerability at maximum feasible dose,[8],well tolerated
